Measurements as given in US12310970B2, “Compounds and methods for treating or preventing anterior segment ocular disorders and/or retinal degenerations” (YALE UNIVERSITY, priority 2018, dated 2025).
Counter-ions that a name gives are not always drawn.

Experiments:
Type in all cases: cell-based
[1] = system: Human lens epithelial cells; assay: TBHP-induced cell death in lens epithelial cells; conditions: lens epithelial cells (FIG. 19); 0.9 μM 24 h, then 300 μM TBHP 24 h
Protocol: Immortalized human lens epithelial cells (CRL-11421) obtained from the American Type Culture Collection (ATCC, Manassas, VA, USA) were cultured in Eagle's minimum essential media (EMEM, ATCC) containing 10% fetal bovine serum (FBS), 100 IU/mL penicillin, 100 μg/mL streptomycin, 100 μg/mL gentamicin, and 2.5 μg/mL amphotericin B (Thermo Fisher Scientific). Human ARPE-19 cells were plated in 96-well plates for 24 hours in DMEM supplemented with FBS and antibiotics. ARPE-19 cells were preincubated with either ciclopirox olamine (Sigma), compound 414 (Chemical Diversity, San Diego, CA), compound 434 (Chemical Diversity) or no compound for 24 hours and then exposed to varying concentrations of tert-butyl hydroperoxide (TBHP; Sigma-Aldrich, St. Louis, MO) the next day for 24 hours. Cell viability was measured the following day by […] cell viability assay (Promega, Madison, WI) using a BioTek FLX800TM fluorescence reader (BioTek Winooski, VT). […] Protective effect of 0.9 μMciclopirox olamine on lens epithelial cells exposed to 300 μMTBHP.

[2] = system: Human iPSC-derived RPE cells; assay: Mitochondrial respiration (Seahorse XF) after TBHP in iPSC-derived RPE
Human ARPE-19 cells = assay: Expression of oxidative stress and apoptosis related genes after TBHP; conditions: 0.9 μM 24 h preincubation, 300 μM TBHP 24 h
Protocol: FIG. 2 depicts the gene expression pattern of oxidative stress related genes after tert-butyl hydroperoxide-induced cell death. Human ARPE-19 cells were preincubated ciclopirox olamine (0.9 μM) for 24 hours and then exposed to 300 μM tert-butyl hydroperoxide (TBHP) for 24 hours. […] FIG. 3 depicts apoptotic gene expression patterns after oxidative stress-induced cell death in human retinal pigment epithelial (RPE) cells. Human ARPE-19 cells were preincubated with ciclopirox olamine for 24 hours and then exposed to 300 μM tert-butyl hydroperoxide (TBHP) for 24 hours. […] The expression levels of genes related to oxidative stress were identified after exposure to TBHP for 24 hours (FIG. 2).

Cc1cc(C2CCCCC2)n(O)c(=O)c1 [ciclopirox olamine, 6-cyclohexyl-1-hydroxy-4-methyl-2(1H)-pyridone, ethanolamine salt, reference compound]
cell viability after exposure to TBHP [1]: significantly increases cell viability | mitochondrial function, treatment alone ([2]; iPSC-derived RPE treated with ciclopirox olamine alone): improved | protection from oxidative stress-induced cell death ([2]; iPSC-derived RPE, TBHP 24 h): protects | expression of genes related to anti-oxidative stress (Human ARPE-19 cells): elevated | expression of genes related to oxidative stress (Human ARPE-19 cells): reduced | gene expression of Bax (Human ARPE-19 cells): reduced | gene expression of caspase 8 (Human ARPE-19 cells): reduced
